# Experiments:
# [1] = test system: adult subjects with relapsing MS; assay: FSIQ-RMS weekly symptoms score, change from baseline to Week 108 (fatigue); type: in vivo, human; details: for FSIQ-RMS change: Improved (<−6.3), patients / FSIQ-RMS change: Stable (−6.3 < x < +6.3), patients / FSIQ-RMS change: Stable or Improved, patients / FSIQ-RMS change: Worsened (≥6.3), patients / FSIQ-RMS-S total score change: Improved (<−6.3), patients / FSIQ-RMS-S total score change: Stable (−6.3 < x < +6.3), patients / FSIQ-RMS-S total score change: Stable or Improved, patients / FSIQ-RMS-S total score change: Worsened (≥6.3), patients: Week 108; for Mean change from baseline to Week 108 in FSIQ-RMS weekly symptoms score (MMRM): ponesimod 20 mg, teriflunomide 14 mg, full analysis set, increase = worsening
# Procedure: In some embodiments, the patient-reported outcome questionnaire is the symptom domain of the FSIQ-RMS. The FSIQ-RMS symptom domain (FSIQ-RMS-S) consists of seven items assessing fatigue-related symptoms with a recall period of 24 hours measured on an 11-point numeric rating scale; the standardized symptom domain score ranges from 0 to 100 with a higher score indicating greater fatigue. This domain (i.e., section 1 of the questionnaire) is completed on 7 consecutive days.
# As used herein, the term “patient level” refers to individual or within patient level of change. As used herein, “clinically meaningful” refers to the practical importance of a treatment effect and whether it has a real genuine, palpable, noticeable effect on symptoms and/or daily life. When interpreting data from a Patient Reported Outcome (PRO), for example, it is helpful to define a level of change on the PRO score over a predetermined time period that should be interpreted as a treatment benefit. Various terms are used for this level of change, including meaningful change threshold (MCT). This threshold can be used to conduct a responder analysis where an individual patient is a responder if the level of change on the PRO score for that patient exceeds the MCT. The proportion of responders between treatment groups can be compared to evaluate treatment effect. For example, in certain embodiments disclosed herein, there is an analysis of the percentage of responders in the ponesimod and teriflunomide treatment groups using an MCT of −6.3 on the FSIQ-RMS weekly symptom score. The percentage of subjects in the stable or improved category is also calculated. […] Accordingly, evaluation of within patient changes using MCT and associated responder analyses are used to provide additional interpretation to a p-value derived from a statistical test
# For the MS symptoms domain, the FSIQ-RMS asks about a patient's fatigue-related symptoms of relapsing MS over the past 24 hours while doing routine daily activities (e.g., housework, yard work, shopping, working, etc.) for Items 1-6 or while at rest (e.g., reading a book, watching TV, etc.) for Item 7. Patients are asked to select a response on a scale of 0 to 10 that best describes their experience and are asked to not skip any questions, with no answers being right or wrong. • Item 1—In the past 24 hours, while doing routine daily activities, how physically tired did you feel? See FIG. 31. • Item 2—In the past 24 hours, while doing routine daily activities, how mentally tired did you feel? See FIG. 32. • Item 3—In the past 24 hours, while doing routine daily activities, how physical weak did you feel? See FIG. 33. • Item 4—In the past 24 hours, how would you rate your energy while doing routine daily activities? See FIG. 34. • Item 5—In the past 24 hours, while doing routine daily activities, how worn out did you feel? See FIG. 35. • Item 6—In the past 24 hours, while doing routine daily activities, how sleepy did you feel? See FIG. 36. • Item 7—In the past 24 hours, how worn out did you feel while at rest? MS-Related Impacts—13 Items
# Secondary efficacy variables and testing strategy: Four secondary efficacy endpoints were analyzed as per the statistical testing strategy outlined in FIG. 1. • Change from baseline to Week 108 in fatigue-related symptoms as measured by the symptoms domain of the FSIQ-RMS patient-reported outcome [Fatigue] • Cumulative number of combined unique active lesions from baseline to Week 108 on brain MRI [CUALs] • Time to first 12-week confirmed disability accumulation (CDA) from baseline to EOS on Expanded Disability Status Scale (EDSS) [12-week CDA] • Time to first 24-week CDA from baseline to EOS on EDSS [24-week CDA] […]
# [2] = test system: adult subjects with relapsing MS; assay: Premature treatment discontinuation; type: in vivo; details: for Subjects discontinued due to AEs or tolerability related reasons: ponesimod 20 mg, teriflunomide 14 mg
# Procedure: A total of 1468 subjects were screened. Of those, 1133 subjects were randomized (567 to ponesimod 20 mg and 566 to teriflunomide 14 mg) across 162 sites in 28 countries, and 1131 subjects received at least one dose of study drug. The disposition of subjects is summarized in Table 1 and a summary of reasons (primary reason) for treatment discontinuation are shown in Table 2. Overall treatment and study discontinuation were balanced across both treatment arms. A total of 6.5% and 2.5% of the subjects discontinued due to AEs or tolerability related reasons in ponesimod 20 mg and teriflunomide 14 mg, respectively, while 1.9% and 4.3% discontinued due to efficacy related reasons. There were 2 deaths reported during the study—both on teriflunomide 14 mg.
# [3] = Baseline EDSS <3.5 (title: ≤3.5)
# [4] = baseline fatigue below the median
# [5] = no prior DMT treatment within about two years
# [6] = no prior DMT treatment within about two years, listed as ponesimod
Compound,"FSIQ-RMS change: Improved (<−6.3), patients [1, 3] [%]","FSIQ-RMS change: Stable (−6.3 < x < +6.3), patients [1, 3] [%]","FSIQ-RMS change: Stable or Improved, patients [1, 3] [%]","FSIQ-RMS change: Worsened (≥6.3), patients [1, 3] [%]","FSIQ-RMS-S total score change: Improved (<−6.3), patients ([1]; Full Analysis Set) [%]","FSIQ-RMS-S total score change: Stable (−6.3 < x < +6.3), patients ([1]; Full Analysis Set) [%]","FSIQ-RMS-S total score change: Stable or Improved, patients ([1]; Full Analysis Set) [%]","FSIQ-RMS-S total score change: Worsened (≥6.3), patients ([1]; Full Analysis Set) [%]","FSIQ-RMS change: Improved (<−6.3), patients [1, 4] [%]","FSIQ-RMS change: Stable (−6.3 < x < +6.3), patients [1, 4] [%]","FSIQ-RMS change: Stable or Improved, patients [1, 4] [%]","FSIQ-RMS change: Worsened (≥6.3), patients [1, 4] [%]","FSIQ-RMS change: Improved (<−6.3), patients ([1]; no Gd+ T1 lesions at baseline) [%]","FSIQ-RMS change: Stable (−6.3 < x < +6.3), patients ([1]; no Gd+ T1 lesions at baseline) [%]","FSIQ-RMS change: Stable or Improved, patients ([1]; no Gd+ T1 lesions at baseline) [%]","FSIQ-RMS change: Worsened (≥6.3), patients ([1]; no Gd+ T1 lesions at baseline) [%]","FSIQ-RMS change: Improved (<−6.3), patients [1, 5] [%]","FSIQ-RMS change: Stable (−6.3 < x < +6.3), patients [1, 5] [%]","FSIQ-RMS change: Stable or Improved, patients [1, 5] [%]","FSIQ-RMS change: Worsened (≥6.3), patients [1, 5] [%]",further results
"CCC/N=C1\S/C(=C\c2ccc(OC[C@H](O)CO)c(Cl)c2)C(=O)N1c1ccccc1C [Ponesimod, (R)-5-[3-chloro-4-(2,3-dihydroxy-propoxy)-benz[Z]ylidene]-2-([Z]-propylimino)-3-o-tolyl-thiazolidin-4-one]",30.6,40.8,71.4,28.6,30.5,38.4,68.9,31.1,19.1,45.2,64.4,35.6,30.0,37.4,67.5,32.5,31.4,44.0,75.4,24.6,"MS-fatigue (FSIQ-RMS) mean difference, change from baseline to week 108, ponesimod vs teriflunomide ([1]; EDSS≤3 subgroup): −4.31; FSIQ-RMS change: Stable or Improved, patients ([1]; baseline fatigue below the median, listed as ponesimod): ~65%; FSIQ-RMS change: Stable or Improved, patients ([1]; no Gd+ T1 lesions at baseline, listed as ponesimod): about 68%; FSIQ-RMS change: Improved (<−6.3), patients [1, 6]: 31.4%; FSIQ-RMS change: Stable or Improved, patients [1, 6]: about 75%; Mean difference in FSIQ-RMS change from baseline to Week 108, ponesimod vs teriflunomide ([1]; ponesimod 20 mg vs teriflunomide 14 mg, Full Analysis Set): −3.57; Mean change from baseline to Week 108 in FSIQ-RMS weekly symptoms score (MMRM) [1]: −0.01; Premature discontinuation: Physician decision, Adverse event, % ([2]; Safety Set): (5.1) %; Premature discontinuation: Subject decision, Tolerability related, % ([2]; Safety Set): (1.4) %; Subjects discontinued due to AEs or tolerability related reasons [2]: 6.5%"
"C/C(O)=C(\C#N)C(=O)Nc1ccc(C(F)(F)F)cc1 [Teriflunomide, reference compound]",27.9,34.2,62.1,37.9,29.9,32.6,62.5,37.5,20.9,33.7,54.6,45.4,25.8,31.2,57.0,43.0,26.2,36.9,63.1,36.9,"FSIQ-RMS change: Stable or Improved, patients ([1]; baseline fatigue below the median, listed as teriflunomide): about 55%; FSIQ-RMS change: Stable or Improved, patients ([1]; no Gd+ T1 lesions at baseline, listed as teriflunomide): about 57%; Mean change from baseline to Week 108 in FSIQ-RMS weekly symptoms score (MMRM) [1]: 3.56; Premature discontinuation: Death, % ([2]; Safety Set): (0.4) %; Premature discontinuation: Physician decision, Adverse event, % ([2]; Safety Set): (1.6) %; Premature discontinuation: Subject decision, Tolerability related, % ([2]; Safety Set): (0.9) %; Subjects discontinued due to AEs or tolerability related reasons [2]: 2.5%"

# From patent US12728116B2, “Methods of treating multiple sclerosis” (Vanda Pharmaceuticals Inc., priority 2021, dated 2026)
